In patent US12643903B2, “Bifunctional compounds for degradation of EGFR and related methods of use” (BeiGene, Ltd., priority 2020, dated 2026) one finds DC50 data, which are given here for 15 molecules.

Broadly, the DC50 is the concentration at which degradation of the target reaches its halfway point. The low end stands for degradation at low concentration, the high end for degradation only at high concentration.

The target of experiment [1] is T1, EGFR (Homo sapiens, UniProt P00533, L858R/T790M).
T1 construct: endogenous in cells; host or cells: H1975
T1 sequence (P00533 25-1210 T790M/L858R): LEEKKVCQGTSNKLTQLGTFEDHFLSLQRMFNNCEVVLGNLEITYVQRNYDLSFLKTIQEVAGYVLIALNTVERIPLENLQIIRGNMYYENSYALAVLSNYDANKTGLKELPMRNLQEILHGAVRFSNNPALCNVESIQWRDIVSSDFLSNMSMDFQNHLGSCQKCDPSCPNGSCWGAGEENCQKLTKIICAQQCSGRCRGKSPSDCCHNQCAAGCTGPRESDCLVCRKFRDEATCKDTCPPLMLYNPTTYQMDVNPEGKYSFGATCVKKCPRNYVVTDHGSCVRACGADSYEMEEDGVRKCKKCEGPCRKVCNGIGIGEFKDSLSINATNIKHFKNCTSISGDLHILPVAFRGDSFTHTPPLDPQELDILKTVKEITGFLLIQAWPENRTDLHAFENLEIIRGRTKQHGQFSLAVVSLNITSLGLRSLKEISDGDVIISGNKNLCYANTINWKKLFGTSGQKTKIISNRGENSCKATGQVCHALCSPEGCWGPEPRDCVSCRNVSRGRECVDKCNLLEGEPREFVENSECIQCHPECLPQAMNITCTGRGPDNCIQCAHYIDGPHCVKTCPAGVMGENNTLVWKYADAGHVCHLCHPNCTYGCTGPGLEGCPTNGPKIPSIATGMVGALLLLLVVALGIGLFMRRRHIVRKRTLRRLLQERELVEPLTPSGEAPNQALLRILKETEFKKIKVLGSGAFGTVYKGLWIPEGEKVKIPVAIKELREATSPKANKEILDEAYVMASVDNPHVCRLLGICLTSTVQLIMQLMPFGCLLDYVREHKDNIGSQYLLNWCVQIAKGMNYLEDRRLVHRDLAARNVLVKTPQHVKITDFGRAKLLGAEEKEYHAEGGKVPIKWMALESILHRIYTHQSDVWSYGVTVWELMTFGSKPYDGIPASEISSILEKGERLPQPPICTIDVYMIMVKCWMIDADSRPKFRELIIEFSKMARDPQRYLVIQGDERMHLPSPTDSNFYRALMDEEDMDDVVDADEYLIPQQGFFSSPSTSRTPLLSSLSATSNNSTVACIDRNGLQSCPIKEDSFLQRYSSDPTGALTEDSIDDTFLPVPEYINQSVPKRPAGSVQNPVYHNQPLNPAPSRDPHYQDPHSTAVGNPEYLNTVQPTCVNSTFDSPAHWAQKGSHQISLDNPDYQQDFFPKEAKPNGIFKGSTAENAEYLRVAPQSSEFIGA
Put plainly: Cell Degradation 1: EGFR degradation in H1975 cells, HTRF assay. Format: cell-based. Conditions: 16 h treatment, EGFR degradation by HTRF. Here is the method: After 16 h treatment, add 100 μl 1×lysis buffer to each well; seal the plate and incubate 1 hour at room temperature on a plate shaker; Once the cells are lysed, 16 μL of cell lysate are transferred to a PE 384-well HTRF detection plate; 4 μL of pre-mixed HTRF antibodies are added to each well; Cover the plate with a plate sealer, spin 1000 rpm for 1 min, Incubate overnight at room temperature; Read on BMG PheraStar with HTRF protocol (337 nm-665 nm-620 nm).
(§1) The IC50 (DC50) value of a compound can be obtained by fitting the following equation Y=Bottom+(TOP−Bottom)/(1+((IC50/X)^hillslope))
(§2) Wherein, X and Y are known values, and IC50, Hillslope, Top and Bottom are the parameters obtained by fitting with software. Y is the inhibition percentage (calculated from the equation), X is the concentration of the compound; IC50 is the concentration of the compound when the 50% inhibition is reached. The smaller the IC50 value is, the stronger the inhibitory ability of the compound is. Vice versa, the higher the IC50 value is, the weaker the ability the inhibitory ability of the compound is; Hillslope represents the slope of the fitted curve, generally around 1*; Bottom represents the minimum value of the curve obtained by data fitting, which is generally 0%±20%; Top represents the maximum value of the curve obtained by data fitting, which is generally 100%±20%. The experimental data were fitted by calculating and analyzing with Dotmatics data analysis software.
(In TR-FRET formats the signal depends on donor and acceptor labels being close together.)

Experiment [2] concerns the target T2, EGFR (Homo sapiens, UniProt P00533, DEL746-750).
T2 construct: endogenous in cells; host or cells: HCC827
The experiment can be described thus: Cell Degradation 2: EGFR degradation in HCC827 cells, HTRF assay. Format: cell-based. The conditions noted are these: 16 h treatment, EGFR degradation by HTRF. Here is the method: After 16 h treatment, add 100 μl 1×lysis buffer to each well; seal the plate and incubate 1 hour at room temperature on a plate shaker; Once the cells are lysed, 16 μl diluted (2 μL to 14 μl 1× lysisi buffer) cell lysate are transferred to a PE 384-well HTRF detection plate; 4 μL of pre-mixed HTRF antibodies are added to each well; Cover the plate with a plate sealer, spin 1000 rpm for 1 min, Incubate overnight at room temperature; Read on BMG PheraStar with HTRF protocol (337 nm-665 nm-620 nm).
as §1, §2

T2 sequence (P00533 with tags, fused parts or gaps DEL746-750): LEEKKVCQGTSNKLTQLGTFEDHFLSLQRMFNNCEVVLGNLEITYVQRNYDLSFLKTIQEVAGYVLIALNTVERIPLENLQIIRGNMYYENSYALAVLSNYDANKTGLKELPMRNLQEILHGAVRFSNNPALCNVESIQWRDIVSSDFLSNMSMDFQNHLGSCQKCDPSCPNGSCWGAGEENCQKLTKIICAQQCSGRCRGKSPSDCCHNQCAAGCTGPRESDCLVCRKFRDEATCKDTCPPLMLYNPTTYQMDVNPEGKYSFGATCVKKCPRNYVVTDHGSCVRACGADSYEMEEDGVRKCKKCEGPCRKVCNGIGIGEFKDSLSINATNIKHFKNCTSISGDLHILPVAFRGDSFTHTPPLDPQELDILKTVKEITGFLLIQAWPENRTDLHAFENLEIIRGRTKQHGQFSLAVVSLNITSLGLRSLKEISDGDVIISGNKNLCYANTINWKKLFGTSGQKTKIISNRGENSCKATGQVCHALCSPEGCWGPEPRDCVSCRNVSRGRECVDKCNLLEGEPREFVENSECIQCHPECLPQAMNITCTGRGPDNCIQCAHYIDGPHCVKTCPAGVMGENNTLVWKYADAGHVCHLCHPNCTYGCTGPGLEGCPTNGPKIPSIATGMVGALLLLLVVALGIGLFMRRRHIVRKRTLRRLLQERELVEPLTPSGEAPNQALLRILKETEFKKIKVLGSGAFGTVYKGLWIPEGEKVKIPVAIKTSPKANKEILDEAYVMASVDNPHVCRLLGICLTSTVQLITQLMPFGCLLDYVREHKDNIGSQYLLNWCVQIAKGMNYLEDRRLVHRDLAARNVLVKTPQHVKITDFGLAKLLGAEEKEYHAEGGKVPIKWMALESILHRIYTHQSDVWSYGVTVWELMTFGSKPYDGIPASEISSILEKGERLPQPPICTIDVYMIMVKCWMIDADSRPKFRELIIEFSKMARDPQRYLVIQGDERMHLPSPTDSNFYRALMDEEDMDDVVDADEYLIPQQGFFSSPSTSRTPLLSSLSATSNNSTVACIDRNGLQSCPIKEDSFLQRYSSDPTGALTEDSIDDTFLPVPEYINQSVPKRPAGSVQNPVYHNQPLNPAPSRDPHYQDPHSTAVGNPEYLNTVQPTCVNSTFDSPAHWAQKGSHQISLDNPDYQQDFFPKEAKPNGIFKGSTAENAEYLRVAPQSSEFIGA
T2 sequence (Q96SW2 whole entry partner): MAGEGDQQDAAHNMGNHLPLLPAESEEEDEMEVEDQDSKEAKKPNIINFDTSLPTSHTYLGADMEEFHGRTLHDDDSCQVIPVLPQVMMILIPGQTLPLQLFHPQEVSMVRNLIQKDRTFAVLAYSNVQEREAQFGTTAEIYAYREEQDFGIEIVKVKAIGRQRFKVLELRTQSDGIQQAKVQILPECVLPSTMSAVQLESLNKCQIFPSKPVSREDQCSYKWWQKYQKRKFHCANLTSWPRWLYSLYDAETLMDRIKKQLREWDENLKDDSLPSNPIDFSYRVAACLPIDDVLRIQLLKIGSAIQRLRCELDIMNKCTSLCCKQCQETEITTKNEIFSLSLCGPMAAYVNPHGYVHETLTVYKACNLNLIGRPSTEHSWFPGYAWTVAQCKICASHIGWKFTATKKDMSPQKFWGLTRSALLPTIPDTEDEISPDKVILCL

Take `CS(=O)(=O)N1CCc2cccc(Nc3nc(Nc4ccc(N5CCC(N6CCN(CCC7CCN(c8ccc(C9CCC(=O)NC9=O)c(F)c8)CC7)CC6)CC5)c(F)c4)nc4[nH]ccc34)c21` (stereo not drawn) [Example 9, 3-(2-fluoro-4-(4-(2-(4-(1-(2-fluoro-4-((4-((1-(methylsulfonyl)indolin-7-yl)amino)-7H-pyrrolo[2,3-d]pyrimidin-2-yl)amino)phenyl)piperidin-4-yl)piperazin-1-yl)ethyl)piperidin-1-yl)phenyl)piperidine-2,6-dione]: the DC50 in experiment [1] turned out to be 19.1 nM; in experiment [2] it was 16.7 nM.
Consider `CS(=O)(=O)N1CCc2cccc(Nc3nc(Nc4ccc(N5CCC(N6CCN(C(=O)[C@H]7CCN(c8ccc9c(c8)C(=O)N(C8CCC(=O)NC8=O)C9=O)C7)CC6)CC5)c(F)c4)nc4[nH]ccc34)c21` (stereo partly drawn) [Example 63, 2-(2,6-dioxopiperidin-3-yl)-5-((S)-3-(4-(1-(2-fluoro-4-((4-((1-(methylsulfonyl)indolin-7-yl)amino)-7H-pyrrolo[2,3-d]pyrimidin-2-yl)amino)phenyl)piperidin-4-yl)piperazine-1-carbonyl)pyrrolidin-1-yl)isoindoline-1,3-dione], for which the DC50 is 3.9 nM in experiment [1] and above 10000 nM in experiment [2].
The corresponding values for `CN(CCc1ccc(C2CCC(=O)NC2=O)c(F)c1)C1CCN(c2ccc(Nc3ncc(Cl)c(Nc4cccc5c4N(S(C)(=O)=O)CC5)n3)c3c2CCO3)CC1` (stereo not drawn) [Example 48, 3-(4-(2-((1-(7-((5-chloro-4-((1-(methylsulfonyl)indolin-7-yl)amino)pyrimidin-2-yl)amino)-2,3-dihydrobenzofuran-4-yl)piperidin-4-yl)(methyl)amino)ethyl)-2-fluorophenyl)piperidine-2,6-dione] are above 10000 nM and 51.8 nM.
For the molecule `CS(=O)(=O)N1CCc2cccc(Nc3nc(Nc4ccc(N5CCC(N6CCN(CCc7ccc(C8CCC(=O)NC8=O)cc7)CC6)CC5)c(F)c4)nc4[nH]ccc34)c21` (stereo not drawn) [Example 1, 3-(4-(2-(4-(1-(2-fluoro-4-((4-((1-(methylsulfonyl)indolin-7-yl)amino)-7H-pyrrolo[2,3-d]pyrimidin-2-yl)amino)phenyl)piperidin-4-yl)piperazin-1-yl)ethyl)phenyl)piperidine-2,6-dione], the figures for the DC50 in experiment [1] and in experiment [2] were 9.9 nM and 24.7 nM, respectively.
The corresponding values for `CS(=O)(=O)N1CCc2cccc(Nc3nc(Nc4ccc(N5CCC(N6CCN(CC7CN(c8ccc9c(c8)CN(C8CCC(=O)NC8=O)C9=O)C7)CC6)CC5)c(F)c4)nc4[nH]ccc34)c21` (stereo not drawn) [Example 59, 3-(5-(3-((4-(1-(2-fluoro-4-((4-((1-(methylsulfonyl)indolin-7-yl)amino)-7H-pyrrolo[2,3-d]pyrimidin-2-yl)amino)phenyl)piperidin-4-yl)piperazin-1-yl)methyl)azetidin-1-yl)-1-oxoisoindolin-2-yl)piperidine-2,6-dione] are 2.7 nM and 3.1 nM.
The corresponding values for `CS(=O)(=O)N1CCc2cccc(Nc3nc(Nc4ccc(N5CCC(N6CCN(CC7CCN(c8ccc9c(c8)C(=O)N(C8CCC(=O)NC8=O)C9=O)CC7)CC6)CC5)c(F)c4)nc4[nH]ccc34)c21` (stereo not drawn) [Example 16, 2-(2,6-dioxopiperidin-3-yl)-5-(4-((4-(1-(2-fluoro-4-((4-((1-(methylsulfonyl)indolin-7-yl)amino)-7H-pyrrolo[2,3-d]pyrimidin-2-yl)amino)phenyl)piperidin-4-yl)piperazin-1-yl)methyl)piperidin-1-yl)isoindoline-1,3-dione] are 33.7 nM and 32.6 nM.
With `COc1cc(N2CCC(N3CCN(CCCC4CN(c5ccc6c(c5)C(=O)N(C5CCC(=O)NC5=O)C6=O)C4)CC3)CC2)c(C)cc1Nc1ncc(Br)c(Nc2cccc3c2N(S(C)(=O)=O)CC3)n1` (stereo not drawn) [Example 44, 5-(3-(3-(4-(1-(4-((5-bromo-4-((1-(methylsulfonyl)indolin-7-yl)amino)pyrimidin-2-yl)amino)-5-methoxy-2-methylphenyl)piperidin-4-yl)piperazin-1-yl)propyl)azetidin-1-yl)-2-(2,6-dioxopiperidin-3-yl)isoindoline-1,3-done], the values for the DC50 in experiment [1] and in experiment [2] were 10.9 nM and 4.6 nM, respectively.
Regarding `CS(=O)(=O)N1CCc2cccc(Nc3nc(Nc4ccc(N5CCC(N6CCN(CC7CN(c8ccc9c(c8)C(=O)N(C8CCC(=O)NC8=O)C9=O)C7)CC6)CC5)c(F)c4)nc4[nH]ccc34)c21` (stereo not drawn) [Example 60, 2-(2,6-dioxopiperidin-3-yl)-5-(3-((4-(1-(2-fluoro-4-((4-((1-(methylsulfonyl)indolin-7-yl)amino)-7H-pyrrolo[2,3-d]pyrimidin-2-yl)amino)phenyl)piperidin-4-yl)piperazin-1-yl)methyl)azetidin-1-yl)isoindoline-1,3-dione], the 50% degradation concentration (DC50) in experiment [1] worked out at 4.9 nM; in experiment [2], 14.6 nM.
The corresponding values for `CS(=O)(=O)N1CCc2cccc(Nc3nc(Nc4ccc(N5CCC(N6CCN(C(=O)CC7CN(c8ccc9c(c8)C(=O)N(C8CCC(=O)NC8=O)C9=O)C7)CC6)CC5)c(F)c4)nc4[nH]ccc34)c21` (stereo not drawn) [Example 61, 2-(2,6-dioxopiperidin-3-yl)-5-(3-(2-(4-(1-(2-fluoro-4-((4-((1-(methylsulfonyl)indolin-7-yl)amino)-7H-pyrrolo[2,3-d]pyrimidin-2-yl)amino)phenyl)piperidin-4-yl)piperazin-1-yl)-2-oxoethyl)azetidin-1-yl)isoindoline-1,3-dione] are 5.7 nM and 19.4 nM.
The corresponding values for `CS(=O)(=O)N1CCc2cccc(Nc3nc(Nc4ccc(N5CCC(N6CCN(C(=O)C7CN(c8ccc(C9CCC(=O)NC9=O)cc8)C7)CC6)CC5)c(F)c4)nc4[nH]ccc34)c21` (stereo not drawn) [Example 58, 3-(4-(3-(4-(1-(2-fluoro-4-((4-((1-(methylsulfonyl)indolin-7-yl)amino)-7H-pyrrolo[2,3-d]pyrimidin-2-yl)amino)phenyl)piperidin-4-yl)piperazine-1-carbonyl)azetidin-1-yl)phenyl)piperidine-2,6-dione] are 2.8 nM and 17.7 nM.
The corresponding values for `CS(=O)(=O)N1CCc2cccc(Nc3nc(Nc4ccc(N5CCC(N6CCN(CCOc7cccc(C8CCC(=O)NC8=O)c7)CC6)CC5)c(F)c4)nc4[nH]ccc34)c21` (stereo not drawn) [Example 5, 3-(3-(2-(4-(1-(2-fluoro-4-((4-((1-(methylsulfonyl)indolin-7-yl)amino)-7H-pyrrolo[2,3-d]pyrimidin-2-yl)amino)phenyl)piperidin-4-yl)piperazin-1-yl)ethoxy)phenyl)piperidine-2,6-dione] are 9 nM and 62.6 nM.
For `CS(=O)(=O)N1CCc2cccc(Nc3nc(Nc4ccc(N5CCC(N6CCN(CC[C@@H]7CCN(c8ccc(C9CCC(=O)NC9=O)cc8)C7)CC6)CC5)c(F)c4)nc4[nH]ccc34)c21` (stereo partly drawn) [Example 64, 3-(4-((R)-3-(2-(4-(1-(2-fluoro-4-((4-((1-(methylsulfonyl)indolin-7-yl)amino)-7H-pyrrolo[2,3-d]pyrimidin-2-yl)amino)phenyl)piperidin-4-yl)piperazin-1-yl)ethyl)pyrrolidin-1-yl)phenyl)piperidine-2,6-dione], the figures for the DC50 in experiment [1] and in experiment [2] were 6.1 nM and 156 nM, respectively.
The corresponding values for `COc1cc(N2CCC(N3CCN(CCc4ccc(C5CCC(=O)NC5=O)cc4)CC3)CC2)ccc1Nc1nc(Nc2cccc3c2N(S(C)(=O)=O)CC3)c2cc[nH]c2n1` (stereo not drawn) [Example 21, 3-(4-(2-(4-(1-(3-methoxy-4-((4-((1-(methylsulfonyl)indolin-7-yl)amino)-7H-pyrrolo[2,3-d]pyrimidin-2-yl)amino)phenyl)piperidin-4-yl)piperazin-1-yl)ethyl)phenyl)piperidine-2,6-dione] are 38.4 nM and 113 nM.
The corresponding values for `CS(=O)(=O)N1CCc2cccc(Nc3nc(Nc4ccc(N5CCC(N6CCN(CCC7CCN(c8ccc9c(c8)CN(C8CCC(=O)NC8=O)C9=O)CC7)CC6)CC5)c(F)c4)nc4[nH]ccc34)c21` (stereo not drawn) [Example 18, 3-(5-(4-(2-(4-(1-(2-fluoro-4-((4-((1-(methylsulfonyl)indolin-7-yl)amino)-7H-pyrrolo[2,3-d]pyrimidin-2-yl)amino)phenyl)piperidin-4-yl)piperazin-1-yl)ethyl)piperidin-1-yl)-1-oxoisoindolin-2-yl)piperidine-2,6-dione] are 14.1 nM and 10.8 nM.
For `CS(=O)(=O)N1CCc2cccc(Nc3nc(Nc4ccc(N5CCC(N6CCN(CCCC7CN(c8ccc9c(c8)C(=O)N(C8CCC(=O)NC8=O)C9=O)C7)CC6)CC5)c5c4OCC5)ncc3Cl)c21` (stereo not drawn) [Example 55, 5-(3-(3-(4-(1-(7-((5-chloro-4-((1-(methylsulfonyl)indolin-7-yl)amino)pyrimidin-2-yl)amino)-2,3-dihydrobenzofuran-4-yl)piperidin-4-yl)piperazin-1-yl)propyl)azetidin-1-yl)-2-(2,6-dioxopiperidin-3-yl)isoindoline-1,3-dione], the DC50 in experiment [1] is 9.6 nM; in experiment [2], 11.9 nM.
